US20060046966A1, “Antipicornaviral compounds and compositions, their pharmaceutical uses, and materials for their synthesis” (Agouron Pharmaceuticals, Inc., priority 1998, published 2006)
pEC50: −log10 of the molar value.

What was measured:
[1] = target: T1, rhinovirus 3C protease from HRV serotype-14 (Human rhinovirus 14, UniProt P03303); assay: Inhibition of rhinovirus 3C protease (FRET assay), serotype 14; format: biochemical; conditions: read-out: Protease Inhibition kobs/[I], HRV serotype-14 3C protease; progress curves in enzyme start experiments
T1 construct: Recombinant rhinovirus 3C proteases; made in house
How it was run: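 Recombinant 3C protease (50-100 nM) with ~1 μM DABCYL-GRAVFQGPVG-EDANS FRET substrate in 50 mM Tris pH 7.6, 1 mM EDTA, 2% DMSO. Cleavage read as increase in EDANS fluorescence. kobs/[I] derived from progress curves of enzyme-initiated reactions.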

HRV (2) = assay: Antirhinoviral H1-HeLa cell culture assay, HRV serotype 2; format: cell-based, human rhinovirus; conditions: Human rhinovirus sp., H1-HeLa, H1-HeLa cells, XTT
Description: (§1) In this cell protection assay, the ability of compounds to protect cells against HRV infection was measured by the XTT dye reduction method, which is described in Weislow et al., J. Natl. Cancer Inst. 1989, vol. 81, 577-586.
(§2) H1-HeLa cells were infected with HRV-14 at a multiplicity of infection (m.o.i.) of 0.13 (virus particles/cell) or mock-infected with medium only. Infected or mock-infected cells were resuspended at 8×10^5 cells per mL, and incubated with appropriate concentrations of the compounds to be tested. Two days later, XTT/PMS was added to test plates and the amount of formazan produced was quantified spectrophotometrically at 450/650 nm. The EC50 value was calculated as the concentration of compound that increased the percentage of formazan production in compound-treated, virus-infected cells to 50% of that produced by compound-free, mock-infected cells. The 50% cytotoxic dose (CC50) was calculated as the concentration of compound that decreased the percentage of formazan produced in compound-treated, mock-infected cells to 50% of that produced by compound-free, mock-infected cells. The therapeutic index (TI) was calculated by dividing the CC50 value by the EC50 value.
(§3) All strains of human rhinovirus (HRV) for use in this assay were purchased from American Type Culture Collection (ATCC), except for HRV serotype-14 (produced from the infectious cDNA clone constructed by Dr. Robert Rueckert, Institute for Molecular Virology, University of Wisconsin, Madison, Wis.). HRV stocks were propagated and viral assays were performed in H1-HeLa cells (ATCC). Cells were grown in minimal essential medium with 10% fetal bovine serum, available from Life Technologies (Gaithersburg, Md.).
(§4) The compounds were tested against control compounds WIN 51711, WIN 52084, and WIN 54954 (obtained from Sterling-Winthrop Pharmaceuticals), Pirodavir (obtained from Janssen Pharmaceuticals), and Pleconaril (prepared according to the method described in Diana et al., J. Med. Chem 1995, vol. 38, 1355). Antiviral data obtained for the test compounds are shown in Tables 1 and 3, where all data are for HRV serotype-14 unless otherwise noted in parentheses.

HRV (16) = assay: Antirhinoviral H1-HeLa cell culture assay, HRV serotype 16; format: cell-based; conditions: Human rhinovirus sp., H1-HeLa cells, XTT
Description: as §1, §2, §3
(§5) The compounds were tested against control compounds WIN 51711, WIN 52084, and WIN 54954 (obtained from Sterling-Winthrop Pharmaceuticals), Pirodavir (obtained from Janssen Pharmaceuticals), and Pleconaril (prepared according to the method described in Diana et al., J. Med. Chem 1995, vol. 38, 1355). […]

HRV (10) = assay: Antirhinoviral H1-HeLa cell culture assay, HRV serotype 10; format: cell-based, human rhinovirus; conditions: Human rhinovirus sp., H1-HeLa, H1-HeLa cells, XTT
Description: as §1, §2, §3, §4

HRV (3) = assay: Antirhinoviral H1-HeLa cell culture assay, HRV serotype 3; format: cell-based, human rhinovirus; conditions: Human rhinovirus sp., H1-HeLa, H1-HeLa cells, XTT
Description: as §1, §2, §3, §5

HRV (12) = assay: Antirhinoviral H1-HeLa cell culture assay, HRV serotype 12; format: cell-based; conditions: Human rhinovirus sp., H1-HeLa cells, XTT
Description: as §1
as §2, with “value. […]” for “value.”

HRV (13) = assay: Antirhinoviral H1-HeLa cell culture assay, HRV serotype 13; format: cell-based, human rhinovirus; conditions: Human rhinovirus sp., H1-HeLa, H1-HeLa cells, XTT
Description: as §1, §2, §3, §5

HRV (30) = assay: Antirhinoviral H1-HeLa cell culture assay, HRV serotype 30; format: cell-based; conditions: Human rhinovirus sp., H1-HeLa cells, XTT
Description: as §1
as §2, with “value. […]” for “value.”

HRV (38) = assay: Antirhinoviral H1-HeLa cell culture assay, HRV serotype 38; format: cell-based; conditions: Human rhinovirus sp., H1-HeLa cells, XTT
Description: as §1
as §2, with “value. […]” for “value.”

HRV (87) = assay: Antirhinoviral H1-HeLa cell culture assay, HRV serotype 87; format: cell-based; conditions: Human rhinovirus sp., H1-HeLa cells, XTT
Description: as §1
as §2, with “value. […]” for “value.”

[2] = system: enterovirus type 70 (EV 70); assay: Anti-enteroviral cell culture assay, EV 70; format: cell-based; conditions: Enterovirus D, MRC5, 96 h; Strain EV-70; MRC-5 cells; four days; XTT
Description: Echovirus type 11 (EV 11) and enterovirus type 70 (EV 70) were purchased from ATCC (Rockville, Md.). Virus stocks were propagated and antiviral assays were performed in MRC-5 cells (ATCC). Cells were grown in minimal essential medium with 10% fetal bovine serum (Life Technologies, Gaithersburg, Md.).
The ability of compounds to protect cells against either EV 11 or EV 70 infection was measured by the XTT dye reduction method (Weislow et al., J. Natl. Cancer Inst. 1989, vol. 81, 577-586). MRC-5 cells were infected with EV 11 or EV 70 at an m.o.i. of 0.003 or 0.004, respectively, or mock-infected with medium only. Infected or uninfected cells were added at 1×10^4 cells per well and incubated with appropriate concentrations of compound. Four days later, XTT/PMS was added to test plates, and the amount of formazan produced was quantified spectrophotometrically at 450/650 nm. The EC50 was calculated as the concentration of compound that increased the formazan production in compound-treated, virus-infected cells to 50% of that produced by compound-free, uninfected cells. The 50% cytotoxic dose (CC50) was calculated as the concentration of compound that decreased formazan production in compound-treated, uninfected cells to 50% of that produced in compound-free, uninfected cells. The therapeutic index (TI) was calculated by dividing the CC50 by the EC50. […]

T1 sequence (P03303 1538-1719): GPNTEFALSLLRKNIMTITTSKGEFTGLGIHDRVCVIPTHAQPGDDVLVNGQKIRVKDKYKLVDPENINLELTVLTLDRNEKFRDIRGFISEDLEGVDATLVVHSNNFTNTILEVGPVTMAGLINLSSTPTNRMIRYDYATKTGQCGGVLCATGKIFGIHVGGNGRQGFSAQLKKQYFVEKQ

## CCOC(=O)/C=C/[C@H](C[C@@H]1CCNC1=O)NC(=O)[C@@H](CC(=O)[C@@H](NC(=O)c1cc(C)on1)C(C)C)Cc1ccc(F)cc1 [Compound B-2, Ethyl-3-{(5′-Methylisoxazole-3′-carbonyl)-L-ValΨ(COCH2)-L-(4-F-Phe)-L-((S)-Pyrrol-Ala)}-E-Propenoate]
[1]
  kinact/KI: 1.09e+06 M⁻¹ s⁻¹
HRV (2)
  pEC50: 7.70
HRV (16)
  pEC50: 8.00
HRV (10)
  pEC50: 7.70
HRV (3)
  pEC50: 7.70
HRV (12)
  pEC50: 7.30
HRV (13)
  pEC50: 8.00
HRV (30)
  pEC50: 7.40
HRV (38)
  pEC50: 7.15
HRV (87)
  pEC50: 7.22
[2]
  pEC50: 8.52
